The text below walks through data of BindingDB's records for doi:10.1016/s0960-894x(98)00417-x (Affymax Research Institute, 1999).

For assay [1], the target named is Mannose-6-phosphate isomerase (Candida albicans) (UniProt P34948). As to the kind of experiment: Compound was evaluated for the inhibition constant against phosphomannose isomerase enzyme of Candida albicans (CaPMI).
The target is the same in assay [2]. As to the kind of experiment: Compound was tested for percentage inhibition of phosphomannose isomerase enzyme of Candida albicans (CaPMI).

Chain of Mannose-6-phosphate isomerase (Candida albicans) (P34948 whole entry, looked up): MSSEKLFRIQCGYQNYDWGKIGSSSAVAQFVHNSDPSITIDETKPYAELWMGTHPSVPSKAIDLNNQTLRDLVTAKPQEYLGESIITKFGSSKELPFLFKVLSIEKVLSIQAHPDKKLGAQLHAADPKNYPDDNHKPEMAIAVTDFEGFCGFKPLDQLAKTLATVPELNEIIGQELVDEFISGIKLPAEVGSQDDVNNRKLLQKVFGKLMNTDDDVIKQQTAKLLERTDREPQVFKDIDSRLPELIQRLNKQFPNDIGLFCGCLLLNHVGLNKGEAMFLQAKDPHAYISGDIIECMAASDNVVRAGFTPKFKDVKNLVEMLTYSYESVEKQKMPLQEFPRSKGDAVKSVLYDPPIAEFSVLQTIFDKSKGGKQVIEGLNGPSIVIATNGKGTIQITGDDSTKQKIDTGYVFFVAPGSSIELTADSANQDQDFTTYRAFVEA

In general, Ki refers to a dissociation constant, usually derived from enzyme kinetics or from competition with a known ligand. For orientation: IC50 means the concentration that gives 50% inhibition. High values mean a need for much substance, low ones inhibition by little substance. In assay [1], `O=C(CCCSc1ccc(Cl)c(Cl)c1)NC1(C(=O)NO)Cc2ccccc2C1` [2-[4-(3,4-Dichloro-phenylsulfanyl)-butyrylamino]-indan-2-carboxylic acid hydroxyamide] displayed a Ki of 4 µM. For the same compound, in assay [2], it took 6 µM to reach half-maximal inhibition (IC50).
On to `NC(=O)C1(NC(=O)CCCOc2ccc(Cl)cc2Cl)Cc2ccccc2C1` [2-[4-(2,4-Dichloro-phenoxy)-butyrylamino]-indan-2-carboxylic acid amide], for which affinity in assay [1] was put at a Ki of 4 µM.
